Where two headings read alike, the source gives them in different places.
Assays:
Trx-1/TrxR [1] = biological target: T1, Trx-1/TrxR (Homo sapiens, UniProt P10599+Q16881); test: Trx-1/TrxR-dependent insulin reducing assay; format: biochemical; settings: calculated from 5 concentrations (0.1 to 50 μM)
T1 construct: Thioredoxin reductase was purified from human placenta as previously described; made in house
T1 sequence (P10599 1-105): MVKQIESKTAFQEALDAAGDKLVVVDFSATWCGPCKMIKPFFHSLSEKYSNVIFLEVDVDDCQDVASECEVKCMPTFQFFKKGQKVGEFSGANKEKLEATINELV
T1 sequence (Q16881 1-499 isoform Q16881-5): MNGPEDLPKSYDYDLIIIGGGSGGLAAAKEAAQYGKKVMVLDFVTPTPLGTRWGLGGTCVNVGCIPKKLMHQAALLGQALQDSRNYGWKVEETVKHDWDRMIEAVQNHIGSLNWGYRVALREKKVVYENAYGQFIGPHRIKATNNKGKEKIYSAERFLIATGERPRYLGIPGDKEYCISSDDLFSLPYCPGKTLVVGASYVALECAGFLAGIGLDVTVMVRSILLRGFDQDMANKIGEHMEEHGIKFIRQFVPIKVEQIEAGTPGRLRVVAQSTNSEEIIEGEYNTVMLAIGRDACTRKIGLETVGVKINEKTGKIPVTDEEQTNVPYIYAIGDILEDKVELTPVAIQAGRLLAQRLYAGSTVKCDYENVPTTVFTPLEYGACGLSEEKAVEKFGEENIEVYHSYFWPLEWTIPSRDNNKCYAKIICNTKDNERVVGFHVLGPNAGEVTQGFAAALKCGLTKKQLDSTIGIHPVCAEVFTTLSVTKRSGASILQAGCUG
Method: Thioredoxin reductase was purified from human placenta as previously described (Oblong, J.E.; Gasdaska, P.Y.; Sherrill, K.; Powis,G. Biochemistry 1993, 32, 7271) and recombinant human Trx-1 was prepared as previously described (Gasdaska, P.Y.; Oblong, J.E.; Cotgreave, I.A.; Powis,G. Biochem.Biophys.Acta 1994 ,1218 ,292). TrxR and Trx-1/TrxR activities were measured spectrophotometrically using previously published microtiter plate colorimetric assays, based on the increase in absorbance at 405 nm which occurs as dithionitrobenzoic acid (DTNB) is reduced by the enzyme-mediated transfer of reducing equivalents from NADPH (Gasdaska et al., Biochem.Biophys.Acta 1994 ,1218,292). Trx-1/TrxR-dependent insulin reducing activity was measured in an incubation with a final volume of 60 μL containing 100 mM HEPES buffer, pH 7.2,5 mM EDTA (HE buffer),1 mM NADPH, […],0.8 μM Trx-1 and 2.5 mg/mL bovine insulin. Incubations were for 30 min at 37 ° C. in flat-bottom 96-well microtiter plates. The reaction was stopped by the addition of 100 μL of 6 M guanidine-HC1, 50 mM Tris, pH 8.0, and 10 mM DTNB, and the absorbance measured to 405 nm. TrxR activity was measured in a final incubation volume of 60 μL containing HE buffer, 10 mM DTNB, 1.0 μM TrxR and 1 mM NADPH. Compounds were diluted in HE buffer and added to the wells as 20 μL aliquots, and TrxR was then added,also as 20 μL aliquots in HE buffer. To start the reaction NADPH and DTNB were added as a 20 μL aliquot in HE buffer and the plate was moved to the plate reader which had been preheated to 37 ° C. The optical density at 405 nm was measured every 10 s and initial reaction rates were measured.

MDA-MB-231 cells = test: Antiproliferative assay, MDA-MB-231 cells; format: cell-based, human
From the text: MDA-MB-231 cells, which were also derived from an adenocarcinoma of the breast, are less differentiated than the MCF-7 cells and fail to express functional p53 or estrogen receptors. This class of tumor cells contains important targets for new therapies, because loss of estrogen receptor expression is associated with poor patient prognosis. (Osborne, C. K. Breast Cane. Res. Treatm. 1998, 51, 227).
The inventors extrapolated to determine the IC50 for compounds with little cytotoxicity at 30,μM, the highest concentration tested. […] The enhanced sensitivity of MCF-7 to these compounds may be due to the expression of p53 in these cells.
(§1) Two compounds, 24 referred to herein as SR-4 and 27 referred to herein as SR-7, were examined in greater detail as to their effects on biological activity. The proliferation of MCF-7, MDA-MB-231 and SV40 transformed mouse embryonic fibroblasts was measured by a previously described colorimetric assay (Wipf P, Jung J-K, Rodriguez S, Lazo JS Synthesis and biological evaluation of Deoxypreussomerin A and Palmarumycin CP 1 and related naphthoquinone spiroketals. Tetrahedron 57:283-296, 2001 and Vogt A, Rice RL, Settineri CE, Yokokawa F, Yokokawa S, Wipf P and Lazo JS (1998) Disruption of insulin-like growth factor-I signaling and down-regulation of Cdc2 by SC-ααδ9, a novel small molecule antisignaling agent identified in a targeted array library. J Pharmacol Exptl Therap 287:806-813.). Briefly, the inventors seeded 4,000-6,000 cells per well in microtiter plates. Cells were allowed to attach overnight and treated with vehicle or compounds for 72 h, after which the medium was replaced with serum free medium containing 0.1% 3-[4,5-dimethylthiazol-2-yl]-2,5-diphenyl tetrazolium bromide. Plates were incubated for 3 hours in the dark and total cell number was determined by spectrophotometrically at 540 nm as previously described (Vogt A, Rice RL, Settineri CE, Yokokawa F, Yokokawa S, Wipf P and Lazo JS (1998) Disruption of insulin-like growth factor-1 signaling and down-regulation of Cdc2 by SC-ααδ9, a novel small molecule antisignaling agent identified in a targeted array library. J Pharmacol Exptl Therap 287:806-813.). […] Cells were maintained in RPMI 1640 medium containing 10% fetal bovine serum and the paclitaxel-resistant cells also contained 17 nM paclitaxel and 10 μM verapamil. Cells were plated (2,000/well) in 96-well plates and allowed to attach and grow for 72 hours (paclitaxel and verapamil were removed from resistant cell medium two weeks prior to this plating). They were then treated with 0.5% DMSO vehicle control or 0.08-10 μM compound. The number of cells was determined spectrophotometrically at 490 nm minus absorbance at 630 nm after exposure to 3-(4,5-dimethylthiazol-2-yl)-5-(3-carboxymethoxyphenyl)-2-(4-sulfophenyl)-2H-tetrazolium and N-methyldibenzopyurazine methyl sulfate.
Because of the potential importance of the tumor suppressor gene p53 and the estrogen receptor in controlling the cellular response to cytotoxic agents, the inventors also examined the sensitivity of MDA-MB-231 cells, which lack functional p53 and estrogen receptors. […] As might be expected, these p53 and estrogen receptor deficient cells were generally less sensitive to both natural products and analogs when compared to MCF-7 cells.

[2] = system: mouse embryonic fibroblasts transformed with SV40 large T antigen; test: Proliferation of SV40 transformed mouse embryonic fibroblasts; format: cell-based; settings: 10 μM
Method: as §1, with “Cells were plated (2,000/well) in 96-well plates and allowed to attach and grow for 72 hours (paclitaxel and verapamil were removed from resistant cell medium two weeks prior to this plating). They were then treated with 0.5% DMSO vehicle control or 0.08-10 μM compound.” left out, “sulfate. […]” for “sulfate.”

recombinant Cdc25 = test: In vitro inhibition of recombinant Cdc25; format: biochemical; settings: 30 μM, data not shown
VHR = VHR (Homo sapiens, UniProt P51452); test: In vitro inhibition of VHR; format: biochemical; settings: 30 μM, data not shown
PTPIB = biological target: T2, PTPIB (Homo sapiens, UniProt P18031); test: In vitro inhibition of PTPIB; format: biochemical; settings: 30 μM, data not shown
T2 sequence (P18031 1-435): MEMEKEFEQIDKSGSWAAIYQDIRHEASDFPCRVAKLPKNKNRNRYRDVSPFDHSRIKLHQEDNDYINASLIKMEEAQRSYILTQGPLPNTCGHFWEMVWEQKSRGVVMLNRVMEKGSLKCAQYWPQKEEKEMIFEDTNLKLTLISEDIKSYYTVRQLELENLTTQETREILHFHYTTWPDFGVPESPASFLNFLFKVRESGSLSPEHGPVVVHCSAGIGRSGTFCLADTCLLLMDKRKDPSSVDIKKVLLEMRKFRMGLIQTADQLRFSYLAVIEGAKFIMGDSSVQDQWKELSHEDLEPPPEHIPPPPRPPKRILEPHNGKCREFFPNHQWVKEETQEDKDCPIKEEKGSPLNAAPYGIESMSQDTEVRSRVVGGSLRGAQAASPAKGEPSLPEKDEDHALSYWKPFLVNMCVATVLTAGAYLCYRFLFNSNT

[3] = biological target: thioredoxin reductases (TrxR); settings: read-out: K; (thioredoxin reductase inhibition); cited from earlier work
Trx-1/TrxR [4] = biological target: T3, Trx-1/TrxR (Homo sapiens, UniProt P10599+Q16881); settings: read-out: IC 50 as Trx-1/TrxR inhibitor; cited from earlier work
T3 sequence (P10599 1-105): T1 sequence (P10599 1-105)
T3 sequence (Q16881 151-649 limits assumed): T1 sequence (Q16881 1-499 isoform Q16881-5)

60 cell line panel = settings: read-out: average GI 50; cited from earlier work
garden cress = settings: cited from earlier work

Sequence of VHR (P51452 whole entry, species assumed): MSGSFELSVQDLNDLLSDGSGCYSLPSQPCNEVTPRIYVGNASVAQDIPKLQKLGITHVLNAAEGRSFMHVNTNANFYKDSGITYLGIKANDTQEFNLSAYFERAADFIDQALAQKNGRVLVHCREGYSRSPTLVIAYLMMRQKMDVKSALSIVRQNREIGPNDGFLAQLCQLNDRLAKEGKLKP

CC/C=C/CCOc1cccc2c1C(=O)C=CC21Oc2cccc3cccc(c23)O1 [SR-4, (E)-8-(hex-3-enyloxy)-1-oxo-1,4-dihydronaphthalene-4-spiro-2′-naphto [1″,8″-de][1′,3′] dioxin]
IC50 (Trx-1/TrxR [1]): > 50 µM | enhanced sensitivity of MDA-MB-231 cells compared to MCF-7 cells (MDA-MB-231 cells): five fold enhanced sensitivity | sensitivity of MDA-MB-231 cells, in words (MDA-MB-231 cells; 72 hours, FIG. 23 Panel B): less active | IC50 (MDA-MB-231 cells; Homo sapiens, MDA-MB-231, 72 hours, read-out: MDA-MB-231 50% cell growth inhibition): 9.2 µM | growth inhibition at highest concentration tested [2]: no significant inhibition | inhibition of recombinant Cdc25 activity (recombinant Cdc25): no inhibition | inhibition of VHR activity (VHR): no inhibition | inhibition of PTPIB activity (PTPIB): no inhibition

CC(=O)OC[C@H]1O[C@@H]([S-])[C@H](OC(C)=O)[C@@H](OC(C)=O)[C@@H]1OC(C)=O.CCP(CC)CC.[Au+] [auranofin]
Ki [3]: 0.004 µM

C[C@H]1CO[C@H]2C3=C(C(=O)C=CC3=O)[C@@H]3OC(=O)[C@H]4CC[C@@H]5[C@H]1CC[C@@]52[C@@H]43 [NSC401005]
IC50 (Trx-1/TrxR [4]): 0.17 µM | GI50 (60 cell line panel): 21.5 µM

O=C1C=CC(=O)C23OC12C(=O)C1OC1C31Oc2cccc3cccc(c23)O1 (stereo not shown) [palmarumycin C9]
germination and growth of garden cress (garden cress): completely inhibited germination and growth

O=C1C=CC(=O)[C@@]23O[C@@]12C(=O)C(Cl)=CC31Oc2cccc3cccc(c23)O1 [palmarumycin C4]
germination and growth of garden cress (garden cress): completely inhibited germination and growth
